For 24 compounds, IC50 results are on record in patent publication US10611750B2, “Tetrahydroquinoline compositions as bet bromodomain inhibitors” (FORMA Therapeutics, Inc., priority 2013, dated 2020).

Assay [1] concerns the target T1, BRD4 Bromodomain 2 (BRD4 BD2) (Homo sapiens, UniProt O60885).
T1 construct: 333-460 were cloned, expressed, and purified to homogeneity
In words: AlphaScreen binding assay, BRD4 BD2. Conditions: His-tagged BRD4 BD2 100 nM, biotinylated H4 (1-21) K5/8/12/16 tetra-acetylated peptide 100 nM, compounds listed under IC50 range headings. A digest of the protocol: (§1)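 An AlphaScreen competition format was used with His-BRD4 BD1 or BD2 and biotin-H4 K5/8/12/16-acetyl peptide, each at matched final levels of 50 nM (BD1) or 100 nM (BD2). Incubation in HEPES/NaCl buffer with 0.1% BSA and 0.01% Triton X-100 ran ≥1 h before IC50 determination.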

For assay [2], the system named is acute myelocytic leukemia (AML) cell line MV4-11. In words: Oncology cell growth assay (3-day proliferation, CellTiter-Glo). The format is cell-based. Conditions: Homo sapiens, MV4-11, 72 h, MV4-11 cells, 3000 cells/well, compounds listed under IC50 range headings, read-out: MV411 IC50 (gIC50, inhibition of proliferation). The gist of the method: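 Compounds were serially diluted 3-fold in DMSO, giving final well concentrations from 10 down to 0.0045 μM. MV4-11 cells were then seeded at 3000 cells/well in RPMI 1640 with 10% FBS and incubated 72 hours. CellTiter-Glo signal was measured and gIC50 obtained by four-parameter logistic regression.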

Assay [3] concerns the target T2, BRD4 Bromodomain 1 (BRD4 BD1) (Homo sapiens, UniProt O60885).
T2 construct: 44-168 and BRD4 BD2
In words: AlphaScreen binding assay, BRD4 BD1. The following applies: His-tagged BRD4 BD1 50 nM, biotinylated H4 (1-21) K5/8/12/16 tetra-acetylated peptide 50 nM, compounds listed under IC50 range headings. The gist of the method:
as §1

pIC50: −log10 of the molar value. Bounds are passed on as bounds.

As to `CC(=O)N1c2ccc(-c3cnn(C4CC4)c3)c(OCC(=O)N(C)C)c2CC[C@@H]1C` [I-401], the pIC50 in assay [1] was above 7.30; in assay [2] it was above 6.30; in assay [3], 6.00 to 7.00.

As to `CC(=O)N1c2ccc(-c3cnn(C4CC4)c3)c(OCCNS(C)(=O)=O)c2CC[C@@H]1C` [I-382], the pIC50 in assay [1] was 6.30 to 7.30; in assay [2] it was 6.00 to 6.30; in assay [3] it was 6.00 to 7.00.

For the compound `COC(=O)N1c2ccc(-c3cnn(C4CCNCC4)c3)c(Oc3ccc(F)cc3)c2CC[C@@H]1C` [I-158, (S)-methyl 5-(4-fluorophenoxy)-2-methyl-6-(1-(piperidin-4-yl)-1H-pyrazol-4-yl)-3,4-dihydroquinoline-1(2H)-carboxylate], the pIC50 in assay [1] is above 7.30; in assay [2], above 6.30; in assay [3], 6.00 to 7.00.

With `COC(=O)N1c2ccc(-c3cnn(CCO)c3)c(Oc3ncc(F)cn3)c2CC[C@@H]1C` [I-576], the pIC50 in assay [1] was at most 6.30; in assay [2], below 6.00; in assay [3], 5.00 to 6.00.

In the case of `CC(=O)N1c2ccc(-c3cnn(C4CC4)c3)c(Oc3ccc(C(N)=O)cc3)c2CC[C@@H]1C` [I-209, (S)-4-(1-acetyl-6-(1-cyclopropyl-1H-pyrazol-4-yl)-2-methyl-1,2,3,4-tetrahydroquinolin-5-yloxy)benzamide], the figures for the pIC50 in assay [1], in assay [2] and in assay [3] were 6.30 to 7.30, above 6.30 and 6.00 to 7.00, respectively.

With `CC(=O)N1c2ccc(-c3cnn(C4CCNCC4)c3)c(Oc3ncccn3)c2CC[C@@H]1C` [I-513], the pIC50 in assay [1] was 6.30 to 7.30; in assay [2], above 6.30; in assay [3], 5.00 to 6.00.

As to `CC(=O)N1c2ccc(-c3ccc4c(c3)CCN4S(C)(=O)=O)c(Oc3ncc(F)cn3)c2CC[C@@H]1C` [I-548], the pIC50 in assay [1] was 6.30 to 7.30; in assay [2] it was above 6.30; in assay [3] it was 5.00 to 6.00.

`COC(=O)N1c2ccc(-c3cnn(CC(C)(C)O)c3)c(Oc3ncc(F)cn3)c2CC[C@@H]1C` [I-575]: the pIC50 in assay [1] is 6.30 to 7.30; in assay [2], 6.00 to 6.30; in assay [3] it was 5.00 to 6.00.

On to `COC(=O)N1c2ccc(-c3cnn(C4CCNCC4)c3)c(Oc3ccc(Cl)cc3)c2CC[C@@H]1C` [I-159, (S)-methyl 5-(4-chlorophenoxy)-2-methyl-6-(1-(piperidin-4-yl)-1H-pyrazol-4-yl)-3,4-dihydroquinoline-1(2H)-carboxylate], for which the pIC50 in assay [1] is above 7.30; in assay [2], above 6.30; in assay [3] it was 6.00 to 7.00.

For `CC(=O)N1c2ccc(-c3cnn(C4CC4)c3)c(OCC3CC3(F)F)c2CC[C@@H]1C` (stereo partly drawn) [I-48, 1-((S)-6-(1-cyclopropyl-1H-pyrazol-4-yl)-5-((2,2-difluorocyclopropyl)methoxy)-2-methyl-3,4-dihydroquinolin-1(2H)-yl)ethanone], the results for the pIC50 in assay [1], in assay [2] and in assay [3] were above 7.30, above 6.30 and above 7.00, respectively.

With `COC(=O)N1c2ccc(-c3cnn(C4CC4)c3)c(Oc3ccc(C(N)=O)cc3)c2CC[C@@H]1C` [I-216, (S)-methyl 5-(4-carbamoylphenoxy)-6-(1-cyclopropyl-1H-pyrazol-4-yl)-2-methyl-3,4-dihydroquinoline-1(2H)-carboxylate], the pIC50 in assay [1] was above 7.30; in assay [2], above 6.30; in assay [3], 6.00 to 7.00.

On to `COC(=O)N1c2ccc(-c3cnn(C4CC4)c3)c(Oc3ncc(F)cn3)c2CC[C@@H]1C` [I-577], for which the pIC50 is 6.30 to 7.30 in assay [1], above 6.30 in assay [2] and 5.00 to 6.00 in assay [3].

In the case of `CC(=O)N1c2ccc(-c3ccc4c(c3)CCN4S(C)(=O)=O)c(OCC(=O)N(C)C)c2CC[C@@H]1C` [I-501], the results for the pIC50 in assay [1], in assay [2] and in assay [3] were 6.30 to 7.30, below 6.00 and 5.00 to 6.00, respectively.

In the case of `CCCOc1c(-c2cnn(CCO)c2)ccc2c1CC[C@H](C)N2C(=O)OC` [I-443], the pIC50 was above 7.30 in assay [1], above 6.30 in assay [2] and 5.00 to 6.00 in assay [3].

On to `CC(=O)N1c2ccc(-c3cnn(C4CC4)c3)c(Oc3ncc(C)cn3)c2CC[C@@H]1C` [I-92, (S)-1-(6-(1-cyclopropyl-1H-pyrazol-4-yl)-2-methyl-5-(5-methylpyrimidin-2-yloxy)-3,4-dihydroquinolin-1 (2H)-yl)ethanone], for which the pIC50 was above 7.30 in assay [1], above 6.30 in assay [2] and 6.00 to 7.00 in assay [3].

As for `COC(=O)N1c2ccc(-c3cnn(C4CCNCC4)c3)c(Oc3ncccc3C#N)c2CC[C@@H]1C` [I-147, (S)-methyl 5-(3-cyanopyridin-2-yloxy)-2-methyl-6-(1-(piperidin-4-yl)-1H-pyrazol-4-yl)-3,4-dihydroquinoline-1(2H)-carboxylate], the results for the pIC50 in assay [1], in assay [2] and in assay [3] were 6.30 to 7.30, above 6.30 and 5.00 to 6.00, respectively.

For the compound `C[C@H]1CCc2c(ccc(-c3ccn[nH]3)c2Oc2ccccc2)N1C(=O)C1CC1` [I-218, (S)-cyclopropyl(2-methyl-5-phenoxy-6-(1H-pyrazol-5-yl)-3,4-dihydroquinolin-1(2H)-yl)methanone], the figures for the pIC50 in assay [1], in assay [2] and in assay [3] were above 7.30, above 6.30 and 5.00 to 6.00, respectively.

On to `CC(=O)N1c2ccc(-c3cnn(C4CC4)c3)c(Oc3ccc(Cl)cn3)c2CC[C@@H]1C` [I-288, (S)-1-(5-(5-chloropyridin-2-yloxy)-6-(1-cyclopropyl-1H-pyrazol-4-yl)-2-methyl-3,4-dihydroquinolin-1(2H)-yl)ethanone], for which the pIC50 in assay [1] is above 7.30; in assay [2], above 6.30; in assay [3] it was 6.00 to 7.00.

For `CC(=O)N1c2ccc(-c3cnn(C4CC4)c3)c(Oc3ncc4cn[nH]c4n3)c2CC[C@@H]1C` [I-82, (S)-1-(5-(1H-pyrazolo[3,4-d]pyrimidin-6-yloxy)-6-(1-cyclopropyl-1H-pyrazol-4-yl)-2-methyl-3,4-dihydroquinolin-1(2H)-yl)ethanone], the pIC50 is 6.30 to 7.30 in assay [1], 6.00 to 6.30 in assay [2] and 5.00 to 6.00 in assay [3].

Take `CC(=O)N1c2ccc(-c3cnn(C4CC4)c3)c(OCC3(CO)COC3)c2CC[C@@H]1C` [I-49, (S)-1-(6-(1-cyclopropyl-1H-pyrazol-4-yl)-5-((3-(hydroxymethyl)oxetan-3-yl)methoxy)-2-methyl-3,4-dihydroquinolin-1(2H)-yl)ethanone]: the pIC50 in assay [1] is above 7.30; in assay [2], below 6.00; in assay [3], 6.00 to 7.00.

As to `CC(=O)N1c2ccc(-c3cnn(CC(C)(C)O)c3)c(OC3CCC3)c2CC[C@@H]1C` [I-410], the pIC50 was above 7.30 in assay [1], above 6.30 in assay [2] and 5.00 to 6.00 in assay [3].

Consider `COC(=O)N1c2ccc(-c3cnn(C4CCNCC4)c3)c(Oc3nccc(C(F)(F)F)n3)c2CC[C@@H]1C` [I-528], for which the pIC50 in assay [1] was 6.30 to 7.30; in assay [2], above 6.30; in assay [3] it was 5.00 to 6.00.

For `C[C@H]1CCc2c(ccc(-c3cnn(C4CCNCC4)c3)c2Oc2ccc(C#N)cc2F)N1C(=O)C1CC1` [I-152, (S)-4-(1-(cyclopropanecarbonyl)-2-methyl-6-(1-(piperidin-4-yl)-1H-pyrazol-4-yl)-1,2,3,4-tetrahydroquinolin-5-yloxy)-3-fluorobenzonitrile], the pIC50 in assay [1] is above 7.30; in assay [2], above 6.30; in assay [3], 6.00 to 7.00.

Take `CC(=O)N1c2ccc(-c3cnn(C4CCNCC4)c3)c(Oc3cc(C4CC4)ncn3)c2CC[C@@H]1C` [I-517]: the results for the pIC50 in assay [1], in assay [2] and in assay [3] were 6.30 to 7.30, above 6.30 and 5.00 to 6.00, respectively.
